Data on one compound can be found in patent EP2662079A1 (Ordway Research Institute, Inc., priority 2012, dated 2013).

Several values for one entry are separate records, joined by “and”; a condition that tells them apart may be missing. Equal entries are not always repeated.

The subject of assay [1] is chick chorioallantoic membrane (CAM). In words: Chorioallantoic membrane (CAM) model of angiogenesis. The class given is in vivo. The procedure: In vivo neovascularization was examined by methods described previously. 9-12 Ten-day-old chick embryos were purchased from SPAFAS (Preston, CT) and incubated at 37°C with 55% relative humidity. A hypodermic needle was used to make a small hole in the shell concealing the air sac, and a second hole was made on the broad side of the egg, directly over an avascular portion of the embryonic membrane that was identified by candling. A false air sac was created beneath the second hole by the application of negative pressure at the first hole, causing the CAM to separate from the shell. A window approximately 1.0 cm^2 was cut in the shell over the dropped CAM with a small-crafts grinding wheel (Dremel, division of Emerson Electric Co.), allowing direct access to the underlying CAM. FGF2 (1µg/mL) was used as a standard proangiogenic agent to induce new blood vessel branches on the CAM of 10-day-old embryos. Sterile disks of No. 1 filter paper (Whatman International) were pretreated with 3 mg/mL cortisone acetate and 1 mmol/L PTU and air dried under sterile conditions. Thyroid hormone, hormone analogs, FGF2 or control solvents, and inhibitors were then applied to the disks and the disks allowed to dry. The disks were then suspended in PBS and placed on growing CAMs. […] At 24 hours, the MAPK cascade inhibitor PD 98059 was also added to CAMs topically by means of the filter disks.
After incubation at 37°C with 55% relative humidity for 3 days, the CAM tissue directly beneath each filter disk was resected from control and treated CAM samples. Tissues were washed 3X with PBS, placed in 35-mm Petri dishes (Nalge Nunc), and examined under an SV6 stereomicroscope (Zeiss) at X50 magnification. Digital images of CAM sections exposed to filters were collected using a 3-charge-coupled device color video camera system (Toshiba) and analyzed with Image-Pro software (Media Cybernetics). The number of vessel branch points contained in a circular region equal to the area of each filter disk were counted. One image was counted in each CAM preparation, and findings from 8 to 10 CAM preparations were analyzed for each treatment condition (thyroid hormone or analogs, FGF2, FGF2 antibody, PD 98059). In addition, each experiment was performed 3 times. The resulting angiogenesis index is the mean ± SEM of new branch points.

The subject of assay [2] is Human medullary carcinoma cells (TT). Format: in vivo. From the text: Cells and cell culture. […] Tetrac versus Tetrac NP distribution in h-MTC. […] Penicillin streptomycin (1%) was present in both culture media. […] Cell implantation in nude mice. […] Water and food were provided ad libitum.
Treatment of animals with unmodified or nanoparticulate Tetrac. […] Estimation of tumor response to Tetrac or nanoparticulate Tetrac. […] Statistical analysis for CAM and xenograft studies. […] Statistical significance was defined as P <0.05. RNA microarray analysis.

For assay [3], the system named is GL261 murine brain tumor cells. In words: GL261 growth curve, cell size and colony forming efficiency. The class given is cell-based. As to the method:
1 x 10^5 cells per 25 cm^2 flask at time zero (density 40 cells/mm^2). Three flasks were utilized at each time period. The medium in the flasks was not changed over the duration of the growth curve (unfed cultures). Data were taken daily from day zero to day 11.5 post-seeding and cell numbers, age distributions, and apoptotic percentages were determined. After growth curve shapes (without and with 2 µM Tetrac) were determined, irradiation times at 70 and 270 hour post-seeding were chosen.
To obtain exponential and plateau phase cell numbers, we trypsinized ([…] trypsin-EDTA) cells for 5 min at 37°C.
For determination of CCDTs, the cell numbers per flask were determined on a daily basis. A four-day interval in the exponential region of growth to obtain the CCDTs, yielding a total of 12 estimations for analysis was utilized. A regression analysis was performed using the (log) of the cell number versus the linear time in days (SigmaPlot, V. 10, Systat Software, Inc., Point Richmond, CA). The log slope value and its standard error (SE) were determined, and the SE was converted to the 95% confidence limits using a two-tailed t-table at N-1 degrees of freedom where N is the number of samples. (See Goldstein, A. In: Biostatistics, New York, The MacMillan Co., 1964, p. 140-146).

The test system of assay [4] is GL261 cells. Briefly: Sublethal damage repair (SLDR), split-dose x-rays. Format: cell-based, murine. As to the method:
SLDR was measured at 10% immediate survival level as determined from the acute single dose curve for both control and Tetrac-treated cells in both growth states (i.e. exponentially growing and plateau phase cells. Flasks were irradiated with one-half of the total dose and returned to the 37°C incubator. At increasing periods of time, flasks were removed, and given the second half of the immediate 10% survival dose. Survival was measured at 0, 0.5, 1.0, 1.5, 2.0, 3.0, 4.0, 6.0, 8.0, and 10.0 hours after the initial dose.
To investigate the effects of Tetrac on SLDR and PLDR, cells were chosen that had been given a one-hour treatment with Tetrac at two different times, i.e., at 70 and 270 hours post-seeding).

Assay [5] has as its system GL261 tumor cells. In words: 44°C hyperthermia survival. Format: cell-based, murine. As to the method: Additionally, Tetrac sensitizes GL261 cells in hyperthermic conditions. Graded heat treatment of GL261 tumor cells with 44°C was given, without and with Tetrac. Tetrac increased cell killing as compared to control cells alone, by the equivalent of about 1°C (i.e., 44°C plus Tetrac is the equivalent of 45°C without Tetrac). (See Figure 63).

Assay [6] relates to U87MG cells. Briefly: Colony forming efficiency and flow cytometry. The note with it: Tetrac for 1 h at 37°C. Format: cell-based, human. The procedure:
U87MG cells were seeded at 10^6 cells/100 mm^2 dish and incubated at 37°C for 24 h. Adherent cells were trypsinized and washed once in ambient temperature PBS. Cells were then fixed in 70% ethanol, and stored overnight at 4°C. Cells were prepared for cell cycle analysis by first pelleting the cells (1000 rpm, 7 min, 4°C), and then resuspending the pellet in 1 mL of PBS containing 0.2 mg/mL propidium iodide (Boehringer Mannheim, Indianapolis, IN), with incubation in the dark for 30 min. Cells were then left overnight at 4°C in the dark. Cells were analyzed on a Coulter fluorescence-activated cell sorter (Coulter Electronics, Hialeah, FL). Cells were excited with a single 488 nm argon laser, and the resulting fluorescence was detected using a 585 nm filter. Linear red-orange FL3 data were collected (10,000 events per collection). The distribution of cells within the cell cycle was determined using a Coulter software program.
(In general: Flow cytometry measures light scatter and fluorescence of single cells or particles in a stream.)

Take `O=C(O)Cc1cc(I)c(Oc2cc(I)c(O)c(I)c2)c(I)c1` [Tetrac, 3,3',5,5'-tetraiodothyroacetic acid]: the “effect of Tetrac alone on angiogenesis” value in assay [1] (CAM model (Figure 3C)) is “no effect”. The “Mean Branch points” value in assay [1] (CAM model, FGF (1.25 µg/ml) + compound at 10 µg/plug, n=8) is 81± 8. Further, the “effect on the action of T4 in the CAM model” value in assay [1] (Tetrac 0.1 µmol/L) is reported as “inhibited”. The “reduction of tumor mass compared to controls” value in assay [2] (Tetrac 10 mg/kg i.p., nanoparticulate Tetrac 1 mg/kg i.p., end of study) was 65-80%. The “decrease of tumor tissue hemoglobin content” value in assay [2] (Tetrac 10 mg/kg or Tetrac NP 1 mg/kg i.p. daily for 3 weeks) turned out to be 66%. In assay [2] (Tetrac 10 mg/kg or Tetrac NP 1 mg/kg i.p. daily for 21 days), the “reduction in tumor-associated neovascularization (hemoglobin levels in tumor tissue)” value is given as 70-80%. This compound also gave a tumor size in assay [2] (Tetrac 10 mg/kg or Tetrac NP 1 mg/kg i.p. daily, over 21 days) of under 100 mm^3. Moreover, in assay [2] (after initiation of treatment), the “time to detected reduction in tumor size” value is given as at most 2 days. The “saturation density of control cells relative to Tetrac-treated cells” value in assay [3] is listed as “approximately 2.4 times”. Further, the cell doubling time in assay [3] (Tetrac-treated GL261 cells, 2 µM, exponential growth) is 43.8 ± 3.8 h and 43.8 h. Moreover, the “repair of x-ray damage” value in assay [4] (Tetrac 2uM, 6 to 8 hours post-irradiation (Figure 58)) was “no repair of x-ray damage”. Moreover, in assay [4] (exponential Tetrac treated cells, 2 hours after the first dose), the recovery ratio stood at 1.8. In addition, the “factor by which Tetrac reduced SLDR” value in assay [4] (exponential cells) was found to be 1.8. For the same compound, the “survival relative to survival seen at 0 hours” value in assay [4] (plateau phase cells with Tetrac, 3 hours after the initial dose) was “approximately 36%”. Further, the “decrease in cellular repair (factor)” value in assay [4] (plateau phase cells, three hours post-irradiation) is about 3. Moreover, in assay [5] (44°C plus Tetrac), the “increase in cell killing as temperature equivalent” value is “about 1 °C”. In addition, the sensitization factor in assay [5] (Tetrac 2uM, 20 minutes at 44°C) is 3.8. In assay [6] (flow cytometry), the G1 was 58.2 (± 12.2) %, the G2/M was 24.8 (± 2.8) %, the S was 15.4 (± 9.1) % and the sub-G1 population is given as 1.5 (± 0.2) %. Moreover, the colony forming efficiency in assay [6] (mean and 95% confidence limits) was 26.0 (± 6.1) %.
